Data published in ChEMBL document CHEMBL4400574, “Chemical synthesis and biological activity of novel brominated 7-deazaadenosine-3',5'-cyclic monophosphate derivatives” (Bioorg Med Chem, 2019).

Assays:
[1] = target: T1, Cyclic nucleotide-gated channel alpha-2 (Rattus norvegicus, UniProt Q00195); test: Activation of recombinant rat CNGA2 expressed in Xenopus laevis oocyte assessed as increase in current amplitude by patch-clamp electrophysiology method
T1 sequence (Q00195 whole entry): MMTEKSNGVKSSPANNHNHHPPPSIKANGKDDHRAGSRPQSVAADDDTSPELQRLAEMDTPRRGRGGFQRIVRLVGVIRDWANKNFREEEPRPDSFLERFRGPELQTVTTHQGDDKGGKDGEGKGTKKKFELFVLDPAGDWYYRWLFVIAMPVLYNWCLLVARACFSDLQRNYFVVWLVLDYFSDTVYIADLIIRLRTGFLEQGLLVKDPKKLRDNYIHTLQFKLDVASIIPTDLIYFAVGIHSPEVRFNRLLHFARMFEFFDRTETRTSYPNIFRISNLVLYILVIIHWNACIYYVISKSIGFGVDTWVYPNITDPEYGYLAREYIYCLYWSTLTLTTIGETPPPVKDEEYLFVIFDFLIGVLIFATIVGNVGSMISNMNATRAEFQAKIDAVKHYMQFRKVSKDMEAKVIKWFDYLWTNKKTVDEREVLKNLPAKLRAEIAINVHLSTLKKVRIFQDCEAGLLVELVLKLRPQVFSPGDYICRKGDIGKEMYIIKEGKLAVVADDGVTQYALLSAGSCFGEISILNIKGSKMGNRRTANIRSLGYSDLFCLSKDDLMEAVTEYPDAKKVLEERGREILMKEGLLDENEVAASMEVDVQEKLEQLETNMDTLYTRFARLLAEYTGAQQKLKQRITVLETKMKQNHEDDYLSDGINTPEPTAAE

[2] = target: T2, Rap guanine nucleotide exchange factor 4 (Mus musculus, UniProt Q9EQZ6); test: Inhibition of 8Fluo-cAMP binding to DEP domain deficient mouse EPAC2 (280 to 998 residues) measured after 5 mins by fluorescence polarization assay
T2 sequence (Q9EQZ6 whole entry): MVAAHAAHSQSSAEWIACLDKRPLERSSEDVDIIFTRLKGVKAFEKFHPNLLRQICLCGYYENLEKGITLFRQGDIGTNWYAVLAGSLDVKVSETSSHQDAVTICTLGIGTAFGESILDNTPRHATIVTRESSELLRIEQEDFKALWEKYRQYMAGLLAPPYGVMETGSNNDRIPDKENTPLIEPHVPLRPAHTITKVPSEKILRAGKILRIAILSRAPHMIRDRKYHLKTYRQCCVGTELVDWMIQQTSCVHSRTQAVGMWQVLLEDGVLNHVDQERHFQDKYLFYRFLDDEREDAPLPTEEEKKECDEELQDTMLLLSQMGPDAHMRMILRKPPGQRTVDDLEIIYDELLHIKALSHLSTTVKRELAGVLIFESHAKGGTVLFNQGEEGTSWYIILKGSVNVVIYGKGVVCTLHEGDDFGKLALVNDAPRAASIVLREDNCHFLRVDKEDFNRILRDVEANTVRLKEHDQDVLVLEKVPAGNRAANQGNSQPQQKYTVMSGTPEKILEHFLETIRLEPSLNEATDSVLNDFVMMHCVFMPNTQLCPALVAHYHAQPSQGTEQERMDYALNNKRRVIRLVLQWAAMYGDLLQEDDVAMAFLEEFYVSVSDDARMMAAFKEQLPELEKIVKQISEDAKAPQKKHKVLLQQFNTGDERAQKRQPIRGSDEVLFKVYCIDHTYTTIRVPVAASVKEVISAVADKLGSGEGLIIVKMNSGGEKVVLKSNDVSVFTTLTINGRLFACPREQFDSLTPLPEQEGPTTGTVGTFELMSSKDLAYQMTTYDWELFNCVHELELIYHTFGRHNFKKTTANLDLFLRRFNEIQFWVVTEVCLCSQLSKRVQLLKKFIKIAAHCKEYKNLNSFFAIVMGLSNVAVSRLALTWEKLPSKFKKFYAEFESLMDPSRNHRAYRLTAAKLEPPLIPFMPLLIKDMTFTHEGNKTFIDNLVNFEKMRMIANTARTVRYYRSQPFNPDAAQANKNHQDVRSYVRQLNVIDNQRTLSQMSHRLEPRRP

[3] = target: CNGA2/CNGA4/CNGB1 (Rattus norvegicus, UniProt O35788+Q00195+Q64359); test: Activation of recombinant rat CNGA2/CNGA4/CNGB1b heterotetramer expressed in Xenopus laevis oocyte assessed as increase in current amplitude by patch-clamp electrophysiology method
CNGA2/CNGA4/CNGB1, sequence (Q64359 whole entry, one chain of several): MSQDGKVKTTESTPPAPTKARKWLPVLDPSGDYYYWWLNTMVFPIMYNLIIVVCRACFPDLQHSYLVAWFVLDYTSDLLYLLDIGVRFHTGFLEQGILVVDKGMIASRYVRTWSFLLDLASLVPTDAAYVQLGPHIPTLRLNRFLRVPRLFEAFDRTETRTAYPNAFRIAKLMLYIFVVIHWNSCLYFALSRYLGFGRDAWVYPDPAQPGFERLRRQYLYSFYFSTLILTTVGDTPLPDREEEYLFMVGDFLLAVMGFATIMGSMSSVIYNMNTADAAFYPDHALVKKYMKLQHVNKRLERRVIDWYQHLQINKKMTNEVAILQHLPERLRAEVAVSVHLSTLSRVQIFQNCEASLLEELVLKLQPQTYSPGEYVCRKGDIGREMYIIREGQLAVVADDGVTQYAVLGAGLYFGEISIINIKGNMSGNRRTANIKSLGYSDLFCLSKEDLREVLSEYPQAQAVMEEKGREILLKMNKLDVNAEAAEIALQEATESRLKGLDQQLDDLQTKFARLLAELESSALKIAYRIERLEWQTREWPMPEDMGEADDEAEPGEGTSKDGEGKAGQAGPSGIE
CNGA2/CNGA4/CNGB1, sequence (O35788 whole entry, one chain of several): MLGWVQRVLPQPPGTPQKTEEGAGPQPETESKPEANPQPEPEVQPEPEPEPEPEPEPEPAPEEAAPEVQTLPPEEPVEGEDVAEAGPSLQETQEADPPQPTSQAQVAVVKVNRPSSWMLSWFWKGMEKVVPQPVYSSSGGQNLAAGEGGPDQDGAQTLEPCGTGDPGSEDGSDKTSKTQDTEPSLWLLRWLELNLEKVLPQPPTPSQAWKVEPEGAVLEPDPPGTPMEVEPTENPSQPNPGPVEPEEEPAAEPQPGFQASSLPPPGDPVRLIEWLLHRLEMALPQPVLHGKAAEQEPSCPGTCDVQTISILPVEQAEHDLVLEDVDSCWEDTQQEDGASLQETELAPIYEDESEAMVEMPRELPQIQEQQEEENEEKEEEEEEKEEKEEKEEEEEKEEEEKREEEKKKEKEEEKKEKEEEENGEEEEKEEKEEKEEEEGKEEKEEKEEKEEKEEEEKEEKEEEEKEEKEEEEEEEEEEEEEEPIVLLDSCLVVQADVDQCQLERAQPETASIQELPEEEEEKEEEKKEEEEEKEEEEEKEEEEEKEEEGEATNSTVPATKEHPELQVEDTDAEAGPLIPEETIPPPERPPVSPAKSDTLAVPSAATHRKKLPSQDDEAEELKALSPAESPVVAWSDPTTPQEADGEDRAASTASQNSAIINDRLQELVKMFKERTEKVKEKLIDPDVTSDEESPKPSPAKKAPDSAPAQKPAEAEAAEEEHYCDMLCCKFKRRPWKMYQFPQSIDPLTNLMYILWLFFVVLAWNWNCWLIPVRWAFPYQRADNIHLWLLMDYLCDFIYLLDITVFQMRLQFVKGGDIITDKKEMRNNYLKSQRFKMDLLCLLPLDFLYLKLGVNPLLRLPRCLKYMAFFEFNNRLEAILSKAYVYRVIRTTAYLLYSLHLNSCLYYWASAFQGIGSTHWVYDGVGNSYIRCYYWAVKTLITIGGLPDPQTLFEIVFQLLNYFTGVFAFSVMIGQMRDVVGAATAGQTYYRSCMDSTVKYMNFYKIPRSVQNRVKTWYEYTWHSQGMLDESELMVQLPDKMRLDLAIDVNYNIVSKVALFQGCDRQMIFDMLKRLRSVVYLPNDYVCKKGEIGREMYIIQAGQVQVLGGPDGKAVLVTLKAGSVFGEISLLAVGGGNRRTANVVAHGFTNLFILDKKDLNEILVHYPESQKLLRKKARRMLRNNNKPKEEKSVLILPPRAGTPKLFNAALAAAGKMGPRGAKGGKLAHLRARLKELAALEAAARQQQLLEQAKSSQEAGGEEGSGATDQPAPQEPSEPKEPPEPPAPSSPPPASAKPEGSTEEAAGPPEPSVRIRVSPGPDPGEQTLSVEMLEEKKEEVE

[4] = target: cAMP-dependent protein kinase type I-alpha regulatory subunit (Homo sapiens) (UniProt P10644)
cAMP-dependent protein kinase type I-alpha regulatory subunit (Homo sapiens), sequence (P10644 whole entry): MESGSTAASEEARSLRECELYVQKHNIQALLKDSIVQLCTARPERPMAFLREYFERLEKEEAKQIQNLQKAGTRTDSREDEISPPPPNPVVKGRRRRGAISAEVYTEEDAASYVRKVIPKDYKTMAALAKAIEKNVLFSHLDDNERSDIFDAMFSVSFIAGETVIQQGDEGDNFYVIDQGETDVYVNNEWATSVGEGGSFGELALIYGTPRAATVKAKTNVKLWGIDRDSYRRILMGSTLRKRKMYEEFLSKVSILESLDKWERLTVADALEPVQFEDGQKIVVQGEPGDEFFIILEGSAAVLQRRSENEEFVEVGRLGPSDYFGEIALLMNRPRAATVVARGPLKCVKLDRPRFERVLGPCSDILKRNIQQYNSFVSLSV
Description: Activation of recombinant human PKAR1alpha expressed in Escherichia coli using Kemptide as substrate by spectrophotometric method

[5] = target: cAMP-dependent protein kinase type II-alpha regulatory subunit (Homo sapiens) (UniProt P13861)
cAMP-dependent protein kinase type II-alpha regulatory subunit (Homo sapiens), sequence (P13861 whole entry, the tested form may be a part): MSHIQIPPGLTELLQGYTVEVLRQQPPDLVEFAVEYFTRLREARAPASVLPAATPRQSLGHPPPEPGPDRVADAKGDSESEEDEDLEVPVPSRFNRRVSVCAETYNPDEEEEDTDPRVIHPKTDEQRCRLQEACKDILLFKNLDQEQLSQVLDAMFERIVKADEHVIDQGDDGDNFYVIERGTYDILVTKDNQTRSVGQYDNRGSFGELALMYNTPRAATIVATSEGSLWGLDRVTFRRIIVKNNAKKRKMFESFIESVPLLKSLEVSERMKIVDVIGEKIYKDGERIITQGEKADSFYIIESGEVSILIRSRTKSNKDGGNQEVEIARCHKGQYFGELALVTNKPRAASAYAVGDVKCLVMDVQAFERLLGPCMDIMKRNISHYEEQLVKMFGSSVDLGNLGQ
Description: Activation of recombinant human PKAR2alpha expressed in Escherichia coli using Kemptide as substrate by spectrophotometric method

[6] = target: T3, Rap guanine nucleotide exchange factor 3 (Homo sapiens, UniProt O95398); test: Inhibition of 8Fluo-cAMP binding to recombinant human His-tagged EPAC1 (157 to 881 residues) expressed in Escherichia coli measured after 5 mins by fluorescence polarization assay
T3 sequence (O95398 whole entry): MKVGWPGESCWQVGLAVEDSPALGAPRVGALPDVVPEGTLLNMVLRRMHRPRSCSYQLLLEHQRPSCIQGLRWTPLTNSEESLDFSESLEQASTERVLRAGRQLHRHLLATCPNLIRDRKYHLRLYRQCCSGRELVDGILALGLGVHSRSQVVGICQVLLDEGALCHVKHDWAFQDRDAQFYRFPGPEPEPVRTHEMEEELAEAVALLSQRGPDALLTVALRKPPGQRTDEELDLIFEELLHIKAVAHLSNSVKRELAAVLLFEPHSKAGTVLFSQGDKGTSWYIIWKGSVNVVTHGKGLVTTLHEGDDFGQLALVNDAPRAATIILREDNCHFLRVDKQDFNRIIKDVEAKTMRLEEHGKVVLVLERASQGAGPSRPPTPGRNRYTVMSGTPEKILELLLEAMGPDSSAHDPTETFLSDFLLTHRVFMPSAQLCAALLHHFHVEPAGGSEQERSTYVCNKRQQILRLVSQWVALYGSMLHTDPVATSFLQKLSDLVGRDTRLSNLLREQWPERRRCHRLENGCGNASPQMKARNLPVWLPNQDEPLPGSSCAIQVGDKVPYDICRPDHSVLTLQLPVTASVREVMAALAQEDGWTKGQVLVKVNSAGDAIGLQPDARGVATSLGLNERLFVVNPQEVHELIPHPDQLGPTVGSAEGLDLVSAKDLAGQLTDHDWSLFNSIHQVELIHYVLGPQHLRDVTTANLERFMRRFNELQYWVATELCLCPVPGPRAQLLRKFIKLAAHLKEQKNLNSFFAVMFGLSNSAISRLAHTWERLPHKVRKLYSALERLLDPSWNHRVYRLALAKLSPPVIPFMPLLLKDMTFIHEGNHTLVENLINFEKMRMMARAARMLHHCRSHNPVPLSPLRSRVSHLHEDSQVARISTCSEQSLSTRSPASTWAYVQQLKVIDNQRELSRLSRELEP

[7] = target: T4, Potassium/sodium hyperpolarization-activated cyclic nucleotide-gated channel 2 (Mus musculus, UniProt O88703); test: Activation of recombinant mouse HCN2 expressed in Xenopus laevis oocyte assessed as increase in current amplitude at -30 mV holding potential by patch-clamp electrophysiology method
T4 sequence (O88703 whole entry): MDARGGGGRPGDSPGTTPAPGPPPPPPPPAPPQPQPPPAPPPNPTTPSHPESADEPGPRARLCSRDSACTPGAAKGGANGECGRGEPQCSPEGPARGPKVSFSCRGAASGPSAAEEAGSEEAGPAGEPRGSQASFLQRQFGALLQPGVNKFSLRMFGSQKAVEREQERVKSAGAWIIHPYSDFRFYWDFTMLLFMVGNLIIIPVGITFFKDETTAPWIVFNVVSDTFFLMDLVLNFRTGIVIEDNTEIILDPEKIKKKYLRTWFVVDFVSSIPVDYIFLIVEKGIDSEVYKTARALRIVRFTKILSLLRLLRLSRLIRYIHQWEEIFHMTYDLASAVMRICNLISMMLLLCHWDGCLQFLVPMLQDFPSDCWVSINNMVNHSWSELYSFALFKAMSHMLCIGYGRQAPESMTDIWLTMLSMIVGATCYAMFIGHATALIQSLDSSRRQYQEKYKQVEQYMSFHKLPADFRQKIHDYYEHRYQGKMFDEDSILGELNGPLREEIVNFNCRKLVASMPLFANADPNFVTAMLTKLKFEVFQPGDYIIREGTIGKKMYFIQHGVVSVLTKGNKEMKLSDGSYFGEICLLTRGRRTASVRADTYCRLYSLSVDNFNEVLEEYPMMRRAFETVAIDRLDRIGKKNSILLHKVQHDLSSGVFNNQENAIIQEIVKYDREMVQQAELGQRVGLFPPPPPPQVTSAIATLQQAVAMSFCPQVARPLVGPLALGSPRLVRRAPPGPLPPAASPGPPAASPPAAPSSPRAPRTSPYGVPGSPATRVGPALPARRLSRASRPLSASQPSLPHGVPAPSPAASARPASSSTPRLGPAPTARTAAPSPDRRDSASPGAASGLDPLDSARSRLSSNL

EC50 [1] [nM]	EC50 [2] [nM]	EC50 [3] [nM]	Kact [4] [µM]	Kact [5] [µM]	EC50 [6] [nM]	EC50 [7] [nM]	SMILES
15400	780	1600	0.056	0.088	1090		Nc1ncnc2c1nc(Br)n2[C@@H]1O[C@@H]2COP(=O)(O)O[C@H]2[C@H]1O
2080	2060	360	0.199	0.238	2750	15	Nc1ncnc2c1ccn2[C@@H]1O[C@@H]2COP(=O)(O)O[C@H]2[C@H]1O
6400	300	630	0.043	0.072	530		Nc1ncnc2c1cc(Br)n2[C@@H]1O[C@@H]2COP(=O)(O)O[C@H]2[C@H]1O

SMILES	EC50 [1] [nM]	EC50 [2] [nM]	EC50 [3] [nM]	Kact [4] [µM]	Kact [5] [µM]	EC50 [6] [nM]	EC50 [7] [nM]
Nc1ncnc2c1c(Br)cn2[C@@H]1O[C@@H]2COP(=O)(O)O[C@H]2[C@H]1O	540	2360	120	0.028	0.097	2540	
